Consider 1 molecule from patent US11572590B2, “Methods for evaluating tumor cell spheroids using 3D microfluidic cell culture device” (Dana-Farber Cancer Institute, Inc., priority 2017, dated 2023).

Usually inhibition stands for the relative decrease from the control value, in per cent.

Assay in all cases: SelectScreen Kinase Profiling, single point inhibition and IC50 for off-target kinases
What all share (format): biochemical

Test [1] has as its target T1, off-target kinases (Homo sapiens, UniProt O95835).
T1 sequence (O95835 1-1130): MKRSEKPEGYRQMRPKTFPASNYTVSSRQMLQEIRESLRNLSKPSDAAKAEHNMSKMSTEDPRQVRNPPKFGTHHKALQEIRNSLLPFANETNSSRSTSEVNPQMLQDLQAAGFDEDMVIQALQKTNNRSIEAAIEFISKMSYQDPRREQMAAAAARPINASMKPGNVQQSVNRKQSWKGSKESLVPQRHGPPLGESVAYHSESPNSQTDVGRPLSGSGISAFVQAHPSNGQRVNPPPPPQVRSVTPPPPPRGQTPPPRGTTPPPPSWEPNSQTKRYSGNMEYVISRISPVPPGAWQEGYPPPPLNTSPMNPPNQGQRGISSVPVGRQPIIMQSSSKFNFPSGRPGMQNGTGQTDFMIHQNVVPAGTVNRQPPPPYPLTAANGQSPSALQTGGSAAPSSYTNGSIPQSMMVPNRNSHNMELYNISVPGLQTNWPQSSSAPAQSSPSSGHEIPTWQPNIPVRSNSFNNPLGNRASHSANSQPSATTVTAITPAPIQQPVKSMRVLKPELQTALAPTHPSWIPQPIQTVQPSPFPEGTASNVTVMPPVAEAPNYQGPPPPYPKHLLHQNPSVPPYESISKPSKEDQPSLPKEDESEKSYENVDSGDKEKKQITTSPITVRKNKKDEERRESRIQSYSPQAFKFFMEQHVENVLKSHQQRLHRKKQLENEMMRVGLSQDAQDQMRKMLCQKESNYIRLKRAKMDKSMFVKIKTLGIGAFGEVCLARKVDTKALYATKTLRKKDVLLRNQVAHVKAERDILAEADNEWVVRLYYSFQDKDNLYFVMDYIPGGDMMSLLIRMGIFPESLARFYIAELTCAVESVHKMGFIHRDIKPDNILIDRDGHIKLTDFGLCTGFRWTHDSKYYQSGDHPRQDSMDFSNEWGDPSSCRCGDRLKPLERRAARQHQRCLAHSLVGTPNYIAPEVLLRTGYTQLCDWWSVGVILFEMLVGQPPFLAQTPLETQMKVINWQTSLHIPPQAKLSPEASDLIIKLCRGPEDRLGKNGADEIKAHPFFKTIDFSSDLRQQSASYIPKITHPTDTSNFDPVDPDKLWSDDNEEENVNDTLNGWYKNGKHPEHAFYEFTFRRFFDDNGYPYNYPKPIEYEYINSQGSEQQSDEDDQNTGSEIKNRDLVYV
The conditions noted are these: LATS1, LanthaScreen Binding. (Time-resolved FRET reads energy transfer from a long-lived donor to a nearby acceptor.)

The target of test [2] is off-target kinases (Homo sapiens, UniProt P31749). As to conditions: AKT1 (PKB alpha), ZLYTE, ATP Km app.
Test [3] addresses off-target kinases (Homo sapiens, UniProt P32298). The conditions noted are these: GRK4; Cmpd1 1000 μM; ATP Km app; ZLYTE.
Test [4] addresses off-target kinases (Homo sapiens, UniProt P45984). The conditions noted are these: MAPK9 (JNK2).
For test [5], the target named is off-target kinases (Homo sapiens, UniProt Q00536). As to conditions: CDK16 (PCTK1)/cyclin Y, LanthaScreen Binding.
In test [6] the target is off-target kinases (Homo sapiens, UniProt Q13153). As to conditions: PAK1, ZLYTE, ATP Km app.
For test [7], the target named is off-target kinases (Homo sapiens, UniProt Q15349). The conditions noted are these: RPS6KA2 (RSK3), ZLYTE, ATP Km app.

SMILES strings stand for the structures. Like-named read-outs stand apart in the source and are kept apart here.

off-target kinases (Homo sapiens, UniProt P45984), sequence (P45984 whole entry): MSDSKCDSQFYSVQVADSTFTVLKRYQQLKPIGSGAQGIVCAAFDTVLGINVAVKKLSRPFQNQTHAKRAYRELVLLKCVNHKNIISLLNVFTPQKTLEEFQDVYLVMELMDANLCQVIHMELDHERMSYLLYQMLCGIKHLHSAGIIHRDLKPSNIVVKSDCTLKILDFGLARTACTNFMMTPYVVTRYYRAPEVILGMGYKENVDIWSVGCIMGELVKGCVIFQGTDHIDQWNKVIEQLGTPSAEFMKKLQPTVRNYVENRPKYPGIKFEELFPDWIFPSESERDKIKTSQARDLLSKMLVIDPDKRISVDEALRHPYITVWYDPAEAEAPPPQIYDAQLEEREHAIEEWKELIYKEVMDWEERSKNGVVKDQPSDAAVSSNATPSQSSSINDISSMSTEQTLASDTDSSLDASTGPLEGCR
off-target kinases (Homo sapiens, UniProt Q00536), sequence (Q00536 whole entry): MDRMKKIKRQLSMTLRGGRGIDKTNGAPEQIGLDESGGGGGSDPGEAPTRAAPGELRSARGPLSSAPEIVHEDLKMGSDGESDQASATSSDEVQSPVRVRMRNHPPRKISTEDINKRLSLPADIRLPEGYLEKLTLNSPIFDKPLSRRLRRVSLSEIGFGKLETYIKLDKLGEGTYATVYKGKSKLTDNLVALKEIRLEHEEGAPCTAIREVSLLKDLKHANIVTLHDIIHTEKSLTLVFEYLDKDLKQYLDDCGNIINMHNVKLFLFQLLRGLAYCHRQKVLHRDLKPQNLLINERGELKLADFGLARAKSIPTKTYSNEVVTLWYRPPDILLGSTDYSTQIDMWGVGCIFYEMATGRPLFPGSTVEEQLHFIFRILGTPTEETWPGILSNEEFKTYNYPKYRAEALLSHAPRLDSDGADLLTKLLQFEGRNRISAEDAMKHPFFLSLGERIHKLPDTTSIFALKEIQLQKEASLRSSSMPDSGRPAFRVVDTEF
off-target kinases (Homo sapiens, UniProt P31749), sequence (P31749 whole entry): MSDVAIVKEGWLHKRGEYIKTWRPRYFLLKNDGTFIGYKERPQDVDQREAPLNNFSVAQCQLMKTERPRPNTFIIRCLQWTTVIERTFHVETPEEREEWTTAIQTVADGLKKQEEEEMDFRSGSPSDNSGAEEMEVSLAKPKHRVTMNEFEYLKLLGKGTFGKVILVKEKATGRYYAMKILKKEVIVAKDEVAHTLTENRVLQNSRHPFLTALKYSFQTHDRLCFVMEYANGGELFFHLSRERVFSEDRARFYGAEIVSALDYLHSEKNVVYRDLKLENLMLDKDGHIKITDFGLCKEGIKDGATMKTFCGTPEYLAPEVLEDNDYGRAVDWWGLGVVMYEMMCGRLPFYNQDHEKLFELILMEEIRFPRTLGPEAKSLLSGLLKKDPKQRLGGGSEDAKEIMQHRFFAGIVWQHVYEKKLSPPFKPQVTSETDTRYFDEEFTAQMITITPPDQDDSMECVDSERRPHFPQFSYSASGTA
off-target kinases (Homo sapiens, UniProt P32298), sequence (P32298 whole entry): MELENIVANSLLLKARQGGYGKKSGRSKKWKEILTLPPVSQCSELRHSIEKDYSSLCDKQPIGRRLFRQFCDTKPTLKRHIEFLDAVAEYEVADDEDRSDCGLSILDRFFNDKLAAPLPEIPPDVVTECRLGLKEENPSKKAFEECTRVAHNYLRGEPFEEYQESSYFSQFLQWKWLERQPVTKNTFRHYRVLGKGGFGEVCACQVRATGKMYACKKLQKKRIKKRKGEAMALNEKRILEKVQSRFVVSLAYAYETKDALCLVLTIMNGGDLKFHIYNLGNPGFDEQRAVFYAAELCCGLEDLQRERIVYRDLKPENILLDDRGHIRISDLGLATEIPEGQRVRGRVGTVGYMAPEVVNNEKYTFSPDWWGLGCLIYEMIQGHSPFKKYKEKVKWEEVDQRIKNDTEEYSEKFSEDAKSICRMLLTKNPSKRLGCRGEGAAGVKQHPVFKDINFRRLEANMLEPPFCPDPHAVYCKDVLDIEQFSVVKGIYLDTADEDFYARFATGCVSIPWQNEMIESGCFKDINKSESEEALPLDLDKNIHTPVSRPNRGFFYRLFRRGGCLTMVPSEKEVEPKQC
off-target kinases (Homo sapiens, UniProt Q15349), sequence (Q15349 whole entry): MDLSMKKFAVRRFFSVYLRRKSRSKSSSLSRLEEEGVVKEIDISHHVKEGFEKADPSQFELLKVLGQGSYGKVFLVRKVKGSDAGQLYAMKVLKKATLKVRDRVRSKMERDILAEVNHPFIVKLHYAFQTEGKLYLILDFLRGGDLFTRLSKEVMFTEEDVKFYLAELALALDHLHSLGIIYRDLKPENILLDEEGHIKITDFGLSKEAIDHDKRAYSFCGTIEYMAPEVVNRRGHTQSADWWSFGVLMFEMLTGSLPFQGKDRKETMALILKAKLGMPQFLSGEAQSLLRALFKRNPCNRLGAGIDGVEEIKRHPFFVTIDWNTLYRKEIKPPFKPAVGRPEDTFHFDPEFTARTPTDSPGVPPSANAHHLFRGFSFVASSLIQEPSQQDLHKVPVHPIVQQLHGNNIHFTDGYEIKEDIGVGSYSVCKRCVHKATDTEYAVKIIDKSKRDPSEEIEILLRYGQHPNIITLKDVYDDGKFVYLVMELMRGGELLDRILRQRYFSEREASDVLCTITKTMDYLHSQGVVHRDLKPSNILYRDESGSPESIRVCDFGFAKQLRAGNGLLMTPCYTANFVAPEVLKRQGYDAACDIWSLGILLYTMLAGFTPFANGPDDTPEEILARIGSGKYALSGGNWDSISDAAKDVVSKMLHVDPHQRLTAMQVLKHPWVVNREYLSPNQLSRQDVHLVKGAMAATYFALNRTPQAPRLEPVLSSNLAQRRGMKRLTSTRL
off-target kinases (Homo sapiens, UniProt Q13153), sequence (Q13153 whole entry): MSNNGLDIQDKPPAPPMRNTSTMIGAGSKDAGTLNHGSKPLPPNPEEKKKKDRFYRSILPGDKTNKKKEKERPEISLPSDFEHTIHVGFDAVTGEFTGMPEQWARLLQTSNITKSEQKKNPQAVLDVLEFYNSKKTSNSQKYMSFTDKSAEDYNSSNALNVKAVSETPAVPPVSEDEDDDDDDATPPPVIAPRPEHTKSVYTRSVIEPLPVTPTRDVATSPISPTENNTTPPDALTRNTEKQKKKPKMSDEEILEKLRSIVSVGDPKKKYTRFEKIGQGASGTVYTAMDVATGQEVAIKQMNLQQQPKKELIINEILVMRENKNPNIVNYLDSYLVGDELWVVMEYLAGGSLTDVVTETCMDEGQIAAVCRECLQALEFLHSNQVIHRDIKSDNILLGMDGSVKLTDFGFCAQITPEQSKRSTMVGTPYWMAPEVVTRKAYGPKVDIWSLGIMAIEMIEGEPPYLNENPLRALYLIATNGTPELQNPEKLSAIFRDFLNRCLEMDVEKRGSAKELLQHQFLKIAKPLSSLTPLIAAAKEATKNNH

As to `N#Cc1cc(-c2ncnc(Nc3ccc(N4CCN(C5COC5)CC4)cc3)n2)ccc1OC1CCOCC1` [Compound 1, 5-(4-((4-(4-(oxetan-3-yl)piperazin-1-yl)phenyl)amino)-1,3,5-triazin-2-yl)-2-((tetrahydro-2H-pyran-4-yl)oxy)benzonitrile], the inhibition on off-target kinases [1] (read-out: % Inhibition 1) is -5%; on off-target kinases [1] (read-out: % Inhibition 2), 1%; at off-target kinases [1] (read-out: % Inhibition Avg) it was -2%; on off-target kinases [2] (read-out: % Inhibition 1), 1%; at off-target kinases [2] (read-out: % Inhibition 2) it was 3%; on off-target kinases [2] (read-out: % Inhibition Avg), 2%. Further, the inhibition on off-target kinases [4] (LanthaScreen Binding, read-out: % Inhibition 1) turned out to be 12%; at off-target kinases [4] (LanthaScreen Binding, read-out: % Inhibition 2) it was 14%; at off-target kinases [4] (LanthaScreen Binding, read-out: % Inhibition Avg), 13%; on off-target kinases [4] (ZLYTE, ATP 100, read-out: % Inhibition 1), 12%; on off-target kinases [4] (ZLYTE, ATP 100, read-out: % Inhibition 2) it was 21%; on off-target kinases [4] (ZLYTE, ATP 100, read-out: % Inhibition Avg), 16%. Besides, the inhibition was 70% on off-target kinases [5] (read-out: % Inhibition 1); 73% at off-target kinases [5] (read-out: % Inhibition 2); 71% on off-target kinases [5] (read-out: % Inhibition Avg); 8% on off-target kinases [6] (read-out: % Inhibition 1); 8% at off-target kinases [6] (read-out: % Inhibition 2); 8% at off-target kinases [6] (read-out: % Inhibition Avg). Also, the inhibition stood at 17% on off-target kinases [7] (read-out: % Inhibition 1), 13% at off-target kinases [7] (read-out: % Inhibition 2) and 15% on off-target kinases [7] (read-out: % Inhibition Avg). For the same molecule, the “% Inhibition 1” value on off-target kinases [3] is on record as −4%. In addition, the “% Inhibition 2” value at off-target kinases [3] is listed as −5%. Further, at off-target kinases [3], the “% Inhibition Avg” value is −5%.
